Patent publication US20240124398A1 (priority 2021, published 2024)
“And” between values parts separate entries of the source, which are not always exact repeats. Equal entries are not always repeated. “Also recorded” adds a separate entry of the source. Structures can show the parent of a compound that is named as a salt.

Assays:
[1] = Static storage for 7 days at 40° C./75% RH (XRPD and HPLC); conditions: for Static Storage 40° C./75% RH: HPLC: HPLC purity after 7 days at 40° C. and 75% relative humidity; for Static Storage 40° C./75% RH: XRPD: XRPD pattern after 7 days at 40° C. and 75% relative humidity
GVS (hygroscopicity) = format: physicochemical
[2] = Intrinsic dissolution rate (IDR); format: physicochemical; conditions: for IDR (in words): ranking among TAR Pattern 1, SUC Pattern 3, BEN Pattern 1
[3] = Solubility of psilocin salts in saline; conditions: for XRPD of Residue: solid residue after 5 hours in saline; for Solubility (in words): comparison among forms or with freeform
[4] = Table 9, saturated solution in saline, 25° C., 5 hours

Psilocin oxalate [Psilocin oxalate OX Pattern 2]
Static Storage 40° C./75% RH: HPLC [1]: HPLC- 97.1% | Static Storage 40° C./75% RH: XRPD [1]: OX Pattern 3 +

Psilocin succinate [SUC Pattern 3]
GVS hygroscopicity (in words) (GVS (hygroscopicity)): hygroscopic | GVS mass change between 0 and 80% RH (GVS (hygroscopicity); 0-80% RH): Only 1.0% mass | IDR [2]: 12.4 mg/min/cm2 | IDR (in words) [2]: highest IDR

Psilocin oxalate [Psilocin oxalate OX Pattern 1]
Static Storage 40° C./75% RH: HPLC [1]: HPLC- 94.4% | Static Storage 40° C./75% RH: XRPD [1]: OX Pattern 3

Psilocin fumarate [Psilocin fumarate FUM Pattern 1]
Static Storage 40° C./75% RH: XRPD [1]: FUM Pattern 3; also recorded: FUM Pattern 4

Psilocin pamoate [Psilocin pamoate PAM Pattern 1]
Static Storage 40° C./75% RH: HPLC [1]: HPLC- 99.6% | Static Storage 40° C./75% RH: XRPD [1]: PAM Pattern 1

CN(C)CCc1c[nH]c2cccc(O)c12.O=S(=O)(O)c1cccc2c(S(=O)(=O)O)cccc12 [Psilocin 1,5-napthalenedisulfonate NAP Pattern 2]
Static Storage 40° C./75% RH: HPLC [1]: HPLC - 99.2% | Static Storage 40° C./75% RH: XRPD [1]: NAP Pattern 1

CN(C)CCc1c[nH]c2cccc(O)c12.O=C(O)c1ccccc1O [Psilocin salicylate SAL Pattern 2, Psilocin salicylate]
Static Storage 40° C./75% RH: HPLC [1]: HPLC- 99.8% | Static Storage 40° C./75% RH: XRPD [1]: SAL Pattern 2 +

CN(C)CCc1c[nH]c2cccc(O)c12.O=S(=O)(O)c1cccc2c(S(=O)(=O)O)cccc12 [Psilocin 1,5-napthalenedisulfonate NAP Pattern 1]
Static Storage 40° C./75% RH: HPLC [1]: HPLC- 97.2% | Static Storage 40° C./75% RH: XRPD [1]: NAP Pattern 1 | pH at 5 hrs [3, 4]: 2.0 | XRPD of Residue ([3]; Table 9): NAP Pattern 1 | pH at 5 hrs ([3]; Table 10 (updated), saline): 2.0 | Solubility (in words) ([3]; saline): substantial increases in solubility compared with the freeform

Psilocin adipate [Psilocin adipate ADI Pattern 1]
Static Storage 40° C./75% RH: HPLC [1]: HPLC- 98.4% | Static Storage 40° C./75% RH: XRPD [1]: ADI Pattern 1 +

Psilocin tartrate
Static Storage 40° C./75% RH: XRPD [1]: TAR Pattern 4

Psilocin phosphate [Psilocin phosphate PHO Pattern 1]
Static Storage 40° C./75% RH: HPLC [1]: HPLC - 93.9% | Static Storage 40° C./75% RH: XRPD [1]: PHO Pattern 2

CN(C)CCc1c[nH]c2cccc(O)c12 [Psilocin free base, Psilocin, reference compound]
IDR [2]: [Freeform = 0.09] mg/min/cm2 | pH at 5 hrs [3, 4]: 9.8 and 9.9 | XRPD of Residue ([3]; Table 9): Freeform Pattern 1 | pH at 5 hrs ([3]; Table 10 (updated), saline): 9.8 and 9.9

CCC(=O)O.CN(C)CCc1c[nH]c2cccc(O)c12 [Psilocin propionate PRO Pattern 1, Psilocin propionate]
Static Storage 40° C./75% RH: HPLC [1]: HPLC- 99.4% | Static Storage 40° C./75% RH: XRPD [1]: PRO Pattern

Psilocin adipate [Psilocin adipate ADI Pattern 2]
Static Storage 40° C./75% RH: HPLC [1]: HPLC- 98.1% | Static Storage 40° C./75% RH: XRPD [1]: ADI Pattern 3

Psilocin tartrate [TAR Pattern 1]
GVS hygroscopicity (in words) (GVS (hygroscopicity)): Slightly Hygroscopic | GVS reversible mass change between 0-90% RH (GVS (hygroscopicity)): Reversible 1.4% | IDR [2]: 6.9 mg/min/cm2 | IDR (in words) [2]: second highest IDR | pH at 5 hrs [3, 4]: 3.4 | pH at 5 hrs ([3]; Table 10 (updated), saline): 3.5

CN(C)CCc1c[nH]c2cccc(O)c12 [Psilocin hydrochloride HCl Pattern 1, Psilocin hydrochloride]
pH at 5 hrs ([3]; Table 9, saturated solution in saline, 25° C., 5 hours, hydrochloride): 6.0 and 6.1 | pH at 5 hrs ([3]; Table 10 (updated), saline, hydrochloride): 4.0 and 5.4

Psilocin acetate [Psilocin acetate ACE Pattern 2]
Static Storage 40° C./75% RH: HPLC [1]: HPLC- 83.4% | Static Storage 40° C./75% RH: XRPD [1]: ACE Pattern 3

Psilocin acetate [Psilocin acetate ACE Pattern 1]
Static Storage 40° C./75% RH: HPLC [1]: HPLC - 75.2% | Static Storage 40° C./75% RH: XRPD [1]: ACE Pattern 1 +

Psilocin succinate
Static Storage 40° C./75% RH: XRPD [1]: SUC Pattern 5

CN(C)CCc1c[nH]c2cccc(O)c12.O=C(O)c1ccccc1 [BEN Pattern 1, Psilocin benzoate]
Static Storage 40° C./75% RH: HPLC [1]: HPLC- 99.0% | Static Storage 40° C./75% RH: XRPD [1]: BEN Pattern 1 | GVS hygroscopicity (in words) (GVS (hygroscopicity)): Non-hygroscopic | GVS reversible mass change between 0-90% RH (GVS (hygroscopicity)): Reversible 0.25% | IDR [2]: 0.4 mg/min/cm2 | IDR (in words) [2]: lowest | pH at 5 hrs ([3]; Table 9, saturated solution in saline, 25° C., 5 hours, listed as Psilocin benzoate BEN Pattern 1): 6.8 and 6.9 | XRPD of Residue ([3]; Table 9): BEN Pattern 1 | pH at 5 hrs ([3]; Table 10 (updated), saline, listed as Psilocin benzoate BEN Pattern 1): 6.8 and 6.9 | Solubility (in words) ([3]; saline): substantial increases in solubility compared with the freeform; also recorded: lowest solubility | Solubility in Saline ([3]; summary Table 4, saline, 25° C., 5 hours): 5000 µg/mL

CN(C)CCc1c[nH]c2cccc(O)c12.O=C(O)c1ccccc1O [Psilocin salicylate SAL Pattern 1, Psilocin salicylate]
Static Storage 40° C./75% RH: HPLC [1]: HPLC- 99.1% | Static Storage 40° C./75% RH: XRPD [1]: SAL Pattern | pH at 5 hrs [3, 4]: 4.2 | XRPD of Residue ([3]; Table 9): SAL Pattern 1 | pH at 5 hrs ([3]; Table 10 (updated), saline): 4.2 | Solubility (in words) ([3]; saline): substantial increases in solubility compared with the freeform
